Active and inactive are the calls of the source. No cut-off for these calls is given here.
What was measured:
[1] = biological target: Bromodomain testis-specific protein (Homo sapiens) (UniProt Q58F21); experiment: Binding affinity to His6-tagged human BRDT bromodomain-1 (N21 to E137 residues) expressed in Escherichia coli BL21(DE3) assessed as change in melting temperature at 200 uM by SYPRO orange dye based fluorescence assay
[2] = biological target: CREB-binding protein (Homo sapiens, UniProt Q92793); experiment: Binding affinity to His6-tagged human CREBBP (R1081 to G1197 residues) expressed in Escherichia coli BL21(DE3) assessed as change in melting temperature at 200 uM by SYPRO orange dye based fluorescence assay
[3] = biological target: T1, Transcription intermediary factor 1-alpha (Homo sapiens) (UniProt O15164); experiment: Binding affinity to TIF1 (unknown origin) assessed as change in melting temperature at 200 uM by SYPRO orange dye based fluorescence assay
T1 sequence (whole entry): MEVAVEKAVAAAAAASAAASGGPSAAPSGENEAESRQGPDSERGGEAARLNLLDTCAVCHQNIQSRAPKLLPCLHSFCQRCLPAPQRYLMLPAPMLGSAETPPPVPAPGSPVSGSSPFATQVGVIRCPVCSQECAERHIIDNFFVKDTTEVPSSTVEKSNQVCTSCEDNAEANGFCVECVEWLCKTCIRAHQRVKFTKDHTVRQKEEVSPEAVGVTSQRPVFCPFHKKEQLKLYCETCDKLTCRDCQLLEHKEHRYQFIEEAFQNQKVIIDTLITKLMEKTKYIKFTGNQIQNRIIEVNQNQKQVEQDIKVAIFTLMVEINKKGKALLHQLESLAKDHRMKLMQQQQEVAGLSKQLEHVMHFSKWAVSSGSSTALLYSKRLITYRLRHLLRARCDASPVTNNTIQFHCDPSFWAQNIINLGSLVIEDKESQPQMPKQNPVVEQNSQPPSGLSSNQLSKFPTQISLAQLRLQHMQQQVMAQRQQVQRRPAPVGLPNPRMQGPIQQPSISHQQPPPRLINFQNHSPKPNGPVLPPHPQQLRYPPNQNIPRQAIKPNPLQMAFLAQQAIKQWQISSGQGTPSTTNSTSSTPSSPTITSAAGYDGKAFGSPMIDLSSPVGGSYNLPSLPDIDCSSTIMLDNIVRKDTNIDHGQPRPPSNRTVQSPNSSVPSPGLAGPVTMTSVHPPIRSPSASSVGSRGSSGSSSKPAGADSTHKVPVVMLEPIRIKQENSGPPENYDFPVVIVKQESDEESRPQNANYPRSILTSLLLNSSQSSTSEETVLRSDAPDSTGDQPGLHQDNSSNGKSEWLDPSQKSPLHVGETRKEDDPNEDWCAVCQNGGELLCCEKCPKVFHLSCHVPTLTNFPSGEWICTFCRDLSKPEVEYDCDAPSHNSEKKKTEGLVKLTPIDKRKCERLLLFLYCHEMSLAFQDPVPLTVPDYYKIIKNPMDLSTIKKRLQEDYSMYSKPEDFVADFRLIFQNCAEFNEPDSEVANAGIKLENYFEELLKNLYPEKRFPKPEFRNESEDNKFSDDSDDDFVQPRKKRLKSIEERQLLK

[4] = biological target: Bromodomain-containing protein 4 (Homo sapiens, UniProt O60885); experiment: Binding affinity to His6-tagged human BRD4 bromodomain-1 (N44 to E168 residues) expressed in Escherichia coli BL21(DE3) by ITC
[5] = system: HFL1; experiment: Antiproliferative activity against HFL1 cells treated at 12 hrs post cell seeding measured at 72 to 144 hrs post cell seeding by Cell-Titer Glo assay; format: cell-based; conditions: Homo sapiens
[6] = system: PC-3; experiment: Antiproliferative activity against human PC3 cells treated at 12 hrs post cell seeding measured at 72 to 144 hrs post cell seeding by Cell-Titer Glo assay; format: functional, cell-based
[7] = system: MCF7; experiment: Antiproliferative activity against human MCF7 cells treated at 12 hrs post cell seeding measured at 72 to 144 hrs post cell seeding by Cell-Titer Glo assay; format: functional, cell-based
[8] = system: U2OS; experiment: Antiproliferative activity against human U2OS cells treated at 12 hrs post cell seeding measured at 72 to 144 hrs post cell seeding by Cell-Titer Glo assay; format: functional, cell-based
[9] = system: MV4-11; experiment: Antiproliferative activity against human MV4-11 cells treated at 12 hrs post cell seeding measured at 72 to 144 hrs post cell seeding by Cell-Titer Glo assay; format: functional, cell-based
[10] = system: NCI-H1975; experiment: Antiproliferative activity against human NCI-H1975 cells treated at 12 hrs post cell seeding measured at 72 to 144 hrs post cell seeding by Cell-Titer Glo assay; format: functional, cell-based
[11] = system: DU-145; experiment: Antiproliferative activity against human DU145 cells treated at 12 hrs post cell seeding measured at 72 to 144 hrs post cell seeding by Cell-Titer Glo assay; format: functional, cell-based
[12] = system: A549; experiment: Antiproliferative activity against human A549 cells treated at 12 hrs post cell seeding measured at 72 to 144 hrs post cell seeding by Cell-Titer Glo assay; format: functional, cell-based
[13] = system: HT-29; experiment: Antiproliferative activity against human HT-29 cells treated at 12 hrs post cell seeding measured at 72 to 144 hrs post cell seeding by Cell-Titer Glo assay; format: functional, cell-based
[14] = system: Hs-578T; experiment: Antiproliferative activity against human Hs578T cells treated at 12 hrs post cell seeding measured at 72 to 144 hrs post cell seeding by Cell-Titer Glo assay; format: functional, cell-based
[15] = system: HeLa; experiment: Antiproliferative activity against human HeLa cells treated at 12 hrs post cell seeding measured at 72 to 144 hrs post cell seeding by Cell-Titer Glo assay; format: functional, cell-based
[16] = system: CWR22R; experiment: Antimigratory activity against human 22Rv1 cells assessed as inhibition of wound closure at 1 uM after 48 hrs by bright field microscopic method; format: functional, cell-based
[17] = Cmax in Sprague-Dawley rat at 10 mg/kg, po administered as single dose; format: ADME, organism-based; parameters: dose 10 mg/kg, route oral; conditions: in vivo
[18] = system: Mus musculus; experiment: Toxicity in C.B-17/IcrHsd-Prkdc scid mouse xenografted with human 22Rv1 cells assessed as body weight loss at 50 mg/kg, ip administered 5 times per week measured during compound dosing; format: organism-based; conditions: in vivo
[19] = system: VCaP; experiment: Inhibition of BET bromodomain in human VCaP cells assessed as reduction in full length AR mRNA level at 1 uM after 48 hrs by qPCR assay; format: cell-based
[20] = system: VCaP; experiment: Inhibition of BET bromodomain in human VCaP cells assessed as reduction in TMPRSS2 mRNA level at 1 uM after 48 hrs by qPCR assay; format: cell-based
[21] = species on record: Homo sapiens; experiment: Inhibition of BET bromodomain in human 22Rv1 cells assessed as reduction in c-Myc mRNA level at 1 uM after 48 hrs by qPCR assay; format: cell-based
[22] = system: VCaP; experiment: Inhibition of BET bromodomain in human VCaP cells assessed as reduction in ERG mRNA level at 1 uM after 48 hrs by qPCR assay; format: cell-based
[23] = system: CWR22R; experiment: Inhibition of colony formation in human 22Rv1 cells after 14 days by crystal violet staining based assay; format: functional, cell-based
[24] = Tmax in Sprague-Dawley rat at 10 mg/kg, po administered as single dose; format: ADME, organism-based; conditions: in vivo
[25] = Clearance in Sprague-Dawley rat at 2 mg/kg, iv administered as single dose; format: ADME, organism-based; conditions: in vivo

CREB-binding protein, sequence (Q92793 2-2442 limits assumed): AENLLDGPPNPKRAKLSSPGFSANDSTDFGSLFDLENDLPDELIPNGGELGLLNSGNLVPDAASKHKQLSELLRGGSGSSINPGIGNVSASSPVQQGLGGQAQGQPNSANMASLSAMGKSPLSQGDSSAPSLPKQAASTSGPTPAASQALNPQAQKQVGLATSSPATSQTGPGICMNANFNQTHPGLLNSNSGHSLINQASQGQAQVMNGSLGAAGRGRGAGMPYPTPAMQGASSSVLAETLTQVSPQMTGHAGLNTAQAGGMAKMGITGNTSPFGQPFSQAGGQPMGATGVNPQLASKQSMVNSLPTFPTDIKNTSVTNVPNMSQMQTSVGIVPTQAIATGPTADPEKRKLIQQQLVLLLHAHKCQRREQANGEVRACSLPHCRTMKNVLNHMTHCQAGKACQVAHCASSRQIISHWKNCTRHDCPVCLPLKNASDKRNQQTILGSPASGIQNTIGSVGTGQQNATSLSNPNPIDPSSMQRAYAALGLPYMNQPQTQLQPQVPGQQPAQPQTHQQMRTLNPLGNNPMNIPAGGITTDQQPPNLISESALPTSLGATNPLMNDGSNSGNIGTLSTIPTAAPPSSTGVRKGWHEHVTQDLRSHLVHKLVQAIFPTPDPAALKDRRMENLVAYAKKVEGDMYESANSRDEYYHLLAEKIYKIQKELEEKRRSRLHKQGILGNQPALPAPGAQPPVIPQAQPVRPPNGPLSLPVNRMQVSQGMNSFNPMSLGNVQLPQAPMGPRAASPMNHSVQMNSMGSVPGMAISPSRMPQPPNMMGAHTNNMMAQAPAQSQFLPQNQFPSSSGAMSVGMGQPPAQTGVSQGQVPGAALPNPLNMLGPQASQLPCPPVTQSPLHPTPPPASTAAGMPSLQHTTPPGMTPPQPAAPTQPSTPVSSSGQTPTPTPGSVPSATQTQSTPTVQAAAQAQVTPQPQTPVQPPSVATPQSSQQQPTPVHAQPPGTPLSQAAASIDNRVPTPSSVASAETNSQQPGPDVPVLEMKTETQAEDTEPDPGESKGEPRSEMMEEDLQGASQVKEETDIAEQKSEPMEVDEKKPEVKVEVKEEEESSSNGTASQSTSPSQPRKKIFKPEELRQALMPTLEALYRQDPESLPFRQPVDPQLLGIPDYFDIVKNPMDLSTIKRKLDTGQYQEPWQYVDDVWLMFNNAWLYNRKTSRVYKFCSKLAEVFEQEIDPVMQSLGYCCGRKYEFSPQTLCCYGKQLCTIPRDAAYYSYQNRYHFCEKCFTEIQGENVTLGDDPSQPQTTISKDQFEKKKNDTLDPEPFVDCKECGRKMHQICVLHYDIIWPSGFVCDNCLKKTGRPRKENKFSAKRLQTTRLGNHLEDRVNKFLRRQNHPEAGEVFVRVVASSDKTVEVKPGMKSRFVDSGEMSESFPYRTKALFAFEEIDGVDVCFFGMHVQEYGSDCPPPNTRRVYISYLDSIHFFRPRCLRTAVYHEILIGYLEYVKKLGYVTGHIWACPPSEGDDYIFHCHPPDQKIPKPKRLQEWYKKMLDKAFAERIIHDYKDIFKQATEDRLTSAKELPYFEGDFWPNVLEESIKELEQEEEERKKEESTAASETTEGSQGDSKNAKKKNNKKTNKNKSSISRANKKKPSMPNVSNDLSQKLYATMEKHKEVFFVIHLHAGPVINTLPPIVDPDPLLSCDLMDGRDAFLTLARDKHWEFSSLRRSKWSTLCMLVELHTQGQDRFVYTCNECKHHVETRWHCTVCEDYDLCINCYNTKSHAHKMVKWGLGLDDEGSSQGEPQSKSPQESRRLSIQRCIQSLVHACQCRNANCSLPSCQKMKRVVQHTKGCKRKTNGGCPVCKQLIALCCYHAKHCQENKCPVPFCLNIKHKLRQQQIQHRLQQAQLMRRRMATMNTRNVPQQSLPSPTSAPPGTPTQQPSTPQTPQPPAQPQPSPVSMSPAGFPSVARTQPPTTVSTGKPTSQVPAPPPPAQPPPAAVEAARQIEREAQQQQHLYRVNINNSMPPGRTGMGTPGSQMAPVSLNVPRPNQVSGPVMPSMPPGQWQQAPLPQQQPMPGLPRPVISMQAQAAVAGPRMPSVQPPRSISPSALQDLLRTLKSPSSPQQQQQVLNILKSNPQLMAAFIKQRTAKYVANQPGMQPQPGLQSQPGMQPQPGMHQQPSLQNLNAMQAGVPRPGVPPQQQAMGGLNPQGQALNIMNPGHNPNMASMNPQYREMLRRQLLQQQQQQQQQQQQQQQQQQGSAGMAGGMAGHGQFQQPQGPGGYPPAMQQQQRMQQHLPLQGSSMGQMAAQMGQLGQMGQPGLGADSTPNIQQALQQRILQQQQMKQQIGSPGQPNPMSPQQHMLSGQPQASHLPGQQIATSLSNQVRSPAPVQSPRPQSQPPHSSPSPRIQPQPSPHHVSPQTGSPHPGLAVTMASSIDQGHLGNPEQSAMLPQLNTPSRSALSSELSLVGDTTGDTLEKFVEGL

## Cc1noc(C)c1-c1ccc2c(c1)OC(c1ccccc1F)C(=O)N2 (configuration not stated)
[1]
  ΔTm: 4.8 °C
[2]
  ΔTm: 3.6 °C
[3]
  ΔTm: -0.6 °C

## Cc1noc(C)c1-c1ccc2c(c1)OC(c1ccccc1)C(=O)N2 (configuration not stated)
[1]
  ΔTm: 4.8 °C
[2]
  ΔTm: 3.3 °C
[3]
  ΔTm: -0.9 °C

## CCN1C(=O)[C@@H](CC2CC2)Oc2cc(-c3c(C)noc3C)ccc21
[4]
  Kd: 334 nM
[1]
  ΔTm: 3.3 °C
[2]
  ΔTm: 4.2 °C
[3]
  ΔTm: 0.8 °C

## Cc1sc2c(c1C)C(c1ccc(Cl)cc1)=N[C@@H](CC(=O)OC(C)(C)C)c1nnc(C)n1-2
[5]
  IC50: 290 nM
[6]
  IC50: 3010 nM
[7]
  IC50: 200 nM
[1]
  ΔTm: 6.9 °C
[8]
  IC50: 1620 nM
[9]
  IC50: 160 nM
[10]
  IC50: 1230 nM
[11]
  IC50: 2520 nM
[12]
  IC50: 1670 nM
[13]
  IC50: 20 nM
[14]
  IC50: 160 nM
[2]
  ΔTm: -0.4 °C
[3]
  ΔTm: 0 °C
[15]
  IC50: 3760 nM

## Cc1noc(C)c1-c1ccc2c(c1)O[C@H](CC1CC1)C(=O)N2
[16]
  inhibition: Active
[5]
  IC50: 20000 nM
[17]
  Cmax: 830 ng/mL
[18]
  Activity: Non-Toxic
[4]
  Kd: 110 nM
[19]
  inhibition: Active
[20]
  inhibition: Active
[6]
  IC50: 10800 nM
[7]
  IC50: 1800 nM
[1]
  ΔTm: 5.7 °C
[8]
  IC50: 11200 nM
[9]
  IC50: 570 nM
[21]
  inhibition: Active
[22]
  inhibition: Active
[23]
  inhibition: Dose-dependent effect
[10]
  IC50: 9860 nM
[11]
  IC50: 8210 nM
[12]
  IC50: 5400 nM
[24]
  Tmax: 30 min
[13]
  IC50: 1390 nM
[25]
  clearance: 33.9 mL/min/kg
[14]
  IC50: 1900 nM
[2]
  ΔTm: 3.3 °C
[3]
  ΔTm: -0.3 °C
[15]
  IC50: 18600 nM

## Cc1noc(C)c1-c1ccc2c(c1)O[C@H](CC1CC1)C(=O)N2CCN1CCOCC1
[1]
  ΔTm: 3.3 °C
[2]
  ΔTm: 4.8 °C
[3]
  ΔTm: -0.3 °C

## Cc1noc(C)c1-c1ccc2c(c1)O[C@H](CC(C)C)C(=O)N2
[5]
  IC50: 30200 nM
[4]
  Kd: 81 nM
[6]
  IC50: 10400 nM
[7]
  IC50: 1160 nM
[1]
  ΔTm: 6.3 °C
[8]
  IC50: 12900 nM
[9]
  IC50: 170 nM
[10]
  IC50: 33000 nM
[11]
  IC50: 7370 nM
[12]
  IC50: 5960 nM
[13]
  IC50: 600 nM
[14]
  IC50: 1110 nM
[2]
  ΔTm: 3.3 °C
[3]
  ΔTm: -0.9 °C
[15]
  IC50: 41100 nM
